According to the NIST ThermoML archive (doi:10.1016/j.jct.2008.02.020):
± gives the expanded uncertainty stated by the source.

Conditions: Liquid, Buoyancy - hydrostatic balance with magnetic suspension - one sinker

CCCCCCC [heptane]
Conditions	mass density [kg/m3]
233.15 K, 101.68 kPa	733.289 ± 0.2
233.15 K, 1104.1 kPa	733.918 ± 0.2
233.15 K, 2003.3 kPa	734.481 ± 0.2
233.15 K, 4006 kPa	735.714 ± 0.2
233.15 K, 6004.8 kPa	736.928 ± 0.2
233.15 K, 8009.5 kPa	738.125 ± 0.2
233.15 K, 9956.8 kPa	739.277 ± 0.2
233.15 K, 11864 kPa	740.377 ± 0.2
233.15 K, 13984 kPa	741.588 ± 0.2
233.15 K, 15995 kPa	742.722 ± 0.2
233.15 K, 17888 kPa	743.774 ± 0.2
233.15 K, 20074 kPa	744.977 ± 0.2
233.15 K, 22024 kPa	746.029 ± 0.2
233.15 K, 24018 kPa	747.094 ± 0.2
233.15 K, 25954 kPa	748.113 ± 0.2
233.15 K, 27944 kPa	749.147 ± 0.2
233.15 K, 29979 kPa	750.192 ± 0.2
253.15 K, 98.99 kPa	717.086 ± 0.19
253.15 K, 1101.5 kPa	717.807 ± 0.19
253.15 K, 2000.5 kPa	718.446 ± 0.19
253.15 K, 4006.3 kPa	719.85 ± 0.19
253.15 K, 6005.4 kPa	721.223 ± 0.19
253.15 K, 8147.8 kPa	722.669 ± 0.19
253.15 K, 10096 kPa	723.959 ± 0.19
253.15 K, 11827 kPa	725.088 ± 0.19
253.15 K, 13955 kPa	726.459 ± 0.19
253.15 K, 16060 kPa	727.785 ± 0.19
253.15 K, 18040 kPa	729.014 ± 0.19
253.15 K, 20020 kPa	730.22 ± 0.19
253.15 K, 22093 kPa	731.465 ± 0.19
253.15 K, 23828 kPa	732.495 ± 0.19
253.15 K, 25891 kPa	733.701 ± 0.2
253.15 K, 27739 kPa	734.762 ± 0.2
253.15 K, 29900 kPa	735.987 ± 0.2
273.15 K, 102.15 kPa	700.687 ± 0.18
273.15 K, 1101.3 kPa	701.507 ± 0.18
273.15 K, 2006.3 kPa	702.244 ± 0.18
273.15 K, 4005.4 kPa	703.841 ± 0.19
273.15 K, 6005.5 kPa	705.403 ± 0.19
273.15 K, 8197.5 kPa	707.077 ± 0.19
273.15 K, 10109 kPa	708.507 ± 0.19
273.15 K, 12114 kPa	709.976 ± 0.19
273.15 K, 14092 kPa	711.403 ± 0.19
273.15 K, 16116 kPa	712.831 ± 0.19
273.15 K, 18076 kPa	714.19 ± 0.19
273.15 K, 20096 kPa	715.565 ± 0.19
273.15 K, 22069 kPa	716.883 ± 0.19
273.15 K, 24102 kPa	718.226 ± 0.19
273.15 K, 25918 kPa	719.397 ± 0.19
273.15 K, 27991 kPa	720.718 ± 0.19
273.15 K, 29444 kPa	721.633 ± 0.19
293.15 K, 98.89 kPa	683.986 ± 0.18
293.15 K, 1104.3 kPa	684.937 ± 0.18
293.15 K, 2003.3 kPa	685.779 ± 0.18
293.15 K, 4003 kPa	687.611 ± 0.18
293.15 K, 6003.7 kPa	689.394 ± 0.18
293.15 K, 8007.4 kPa	691.14 ± 0.18
293.15 K, 10028 kPa	692.854 ± 0.18
293.15 K, 12139 kPa	694.603 ± 0.18
293.15 K, 14008 kPa	696.118 ± 0.18
293.15 K, 16160 kPa	697.827 ± 0.18
293.15 K, 18149 kPa	699.368 ± 0.18
293.15 K, 19992 kPa	700.756 ± 0.18
293.15 K, 22123 kPa	702.362 ± 0.18
293.15 K, 24036 kPa	703.766 ± 0.19
293.15 K, 25999 kPa	705.175 ± 0.19
293.15 K, 27983 kPa	706.576 ± 0.19
293.15 K, 29986 kPa	707.965 ± 0.19
313.15 K, 101.45 kPa	666.898 ± 0.17
313.15 K, 1102.2 kPa	667.995 ± 0.17
313.15 K, 2005.5 kPa	668.973 ± 0.17
313.15 K, 4004.5 kPa	671.086 ± 0.18
313.15 K, 6106.9 kPa	673.238 ± 0.18
313.15 K, 7941.2 kPa	675.062 ± 0.18
313.15 K, 9944.4 kPa	676.997 ± 0.18
313.15 K, 11841 kPa	678.793 ± 0.18
313.15 K, 13782 kPa	680.575 ± 0.18
313.15 K, 16032 kPa	682.588 ± 0.18
313.15 K, 17876 kPa	684.2 ± 0.18
313.15 K, 19748 kPa	685.804 ± 0.18
313.15 K, 21803 kPa	687.518 ± 0.18
313.15 K, 23829 kPa	689.172 ± 0.18
313.15 K, 25814 kPa	690.765 ± 0.18
313.15 K, 27801 kPa	692.324 ± 0.18
313.15 K, 29818 kPa	693.872 ± 0.18
333.15 K, 103 kPa	649.298 ± 0.17
333.15 K, 1106 kPa	650.588 ± 0.17
333.15 K, 2004.1 kPa	651.723 ± 0.17
333.15 K, 4003.6 kPa	654.18 ± 0.17
333.15 K, 6004.6 kPa	656.549 ± 0.17
333.15 K, 8005.6 kPa	658.837 ± 0.17
333.15 K, 9901.5 kPa	660.933 ± 0.17
333.15 K, 12083 kPa	663.274 ± 0.17
333.15 K, 14040 kPa	665.309 ± 0.17
333.15 K, 16005 kPa	667.293 ± 0.17
333.15 K, 17854 kPa	669.109 ± 0.17
333.15 K, 19985 kPa	671.149 ± 0.18
333.15 K, 21967 kPa	672.997 ± 0.18
333.15 K, 23926 kPa	674.778 ± 0.18
333.15 K, 25823 kPa	676.467 ± 0.18
333.15 K, 27823 kPa	678.205 ± 0.18
333.15 K, 30009 kPa	680.058 ± 0.18
353.15 K, 99.37 kPa	631.037 ± 0.16
353.15 K, 1182.8 kPa	632.68 ± 0.17
353.15 K, 2156.3 kPa	634.131 ± 0.17
353.15 K, 4140.7 kPa	636.982 ± 0.17
353.15 K, 6175.6 kPa	639.78 ± 0.17
353.15 K, 8138.9 kPa	642.37 ± 0.17
353.15 K, 10095 kPa	644.851 ± 0.17
353.15 K, 12083 kPa	647.284 ± 0.17
353.15 K, 14040 kPa	649.596 ± 0.17
353.15 K, 16039 kPa	651.883 ± 0.17
353.15 K, 18008 kPa	654.064 ± 0.17
353.15 K, 19996 kPa	656.201 ± 0.17
353.15 K, 21956 kPa	658.247 ± 0.17
353.15 K, 23925 kPa	660.247 ± 0.17
353.15 K, 25887 kPa	662.188 ± 0.17
353.15 K, 27855 kPa	664.084 ± 0.17
353.15 K, 29976 kPa	666.077 ± 0.17
373.15 K, 1164.3 kPa	613.877 ± 0.16
373.15 K, 2149.2 kPa	615.631 ± 0.16
373.15 K, 4123.5 kPa	618.999 ± 0.16
373.15 K, 5987 kPa	622.014 ± 0.16
373.15 K, 8094.8 kPa	625.262 ± 0.16
373.15 K, 10060 kPa	628.151 ± 0.16
373.15 K, 12066 kPa	630.972 ± 0.16
373.15 K, 14018 kPa	633.61 ± 0.17
373.15 K, 16044 kPa	636.241 ± 0.17
373.15 K, 18058 kPa	638.765 ± 0.17
373.15 K, 19976 kPa	641.085 ± 0.17
373.15 K, 21960 kPa	643.408 ± 0.17
373.15 K, 23948 kPa	645.665 ± 0.17
373.15 K, 25805 kPa	647.712 ± 0.17
373.15 K, 27898 kPa	649.952 ± 0.17
373.15 K, 29819 kPa	651.952 ± 0.17
393.15 K, 1101.9 kPa	593.952 ± 0.15
393.15 K, 2001.5 kPa	595.905 ± 0.15
393.15 K, 4002.8 kPa	600.027 ± 0.15
393.15 K, 6004.3 kPa	603.884 ± 0.16
393.15 K, 8005.5 kPa	607.511 ± 0.16
393.15 K, 10007 kPa	610.942 ± 0.16
393.15 K, 12111 kPa	614.361 ± 0.16
393.15 K, 14116 kPa	617.466 ± 0.16
393.15 K, 16097 kPa	620.399 ± 0.16
393.15 K, 18029 kPa	623.142 ± 0.16
393.15 K, 20054 kPa	625.904 ± 0.16
393.15 K, 22016 kPa	628.483 ± 0.16
393.15 K, 24006 kPa	631.008 ± 0.16
393.15 K, 25986 kPa	633.434 ± 0.17
393.15 K, 27952 kPa	635.769 ± 0.17
393.15 K, 29843 kPa	638.037 ± 0.17
